Patent US20220298186A1, “BIARYL DIALKYL PHOSPHINE OXIDE FPR2 AGONISTS” (BRISTOL-MYERS SQUIBB COMPANY, priority 2019, published 2022)

Assays:
human FPR2 receptors = biological target: T1, human FPR2 receptors (Homo sapiens, UniProt P25090); test: FPR2 cyclic adenosine monophosphate (cAMP) assay; assay type: cell-based; settings: CHO cells overexpressing human FPR2; forskolin 5 μM, IBMX 200 μM; 30 min at rt; inhibition of cAMP production (HTRF); read-out: hFPR2 cAMP2 EC50
T1 sequence (P25090 1-351): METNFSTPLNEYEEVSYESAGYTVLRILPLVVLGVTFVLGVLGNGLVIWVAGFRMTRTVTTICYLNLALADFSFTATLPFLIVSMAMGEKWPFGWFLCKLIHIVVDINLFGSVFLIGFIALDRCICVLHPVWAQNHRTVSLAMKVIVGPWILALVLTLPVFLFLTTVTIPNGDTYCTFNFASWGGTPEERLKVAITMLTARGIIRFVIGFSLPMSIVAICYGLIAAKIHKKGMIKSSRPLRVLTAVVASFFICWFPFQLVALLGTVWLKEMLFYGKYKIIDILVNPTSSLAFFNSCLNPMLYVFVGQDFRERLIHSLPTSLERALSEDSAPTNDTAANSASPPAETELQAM
Source text: (§1) N-formyl peptide receptors (FPRs) are a family of chemo attractant receptors that facilitate leukocyte response during inflammation. FPRs belong to the seven-transmembrane G protein-coupled receptor superfamily and are linked to inhibitory G-proteins (Gi). Three family members (FPR1, FPR2 and FPR3) have been identified in humans and are predominantly found in myeloid cells with varied distribution and have also been reported in multiple organs and tissues. After agonist binding, the FPRs activate a multitude of physiological pathways, such as intra cellular signaling transduction, Ca^2+ mobilization and transcription. The family interacts with a diverse set of ligands that includes proteins, polypeptides and fatty acid metabolites which activate both pro-inflammatory and pro-resolution downstream responses. FPR2 and FPR1 Cyclic Adenosine Monophosphate (cAMP) Assays were used to measure the activity of the compounds in this patent.
(§2) FPR2 and FPR1 Cyclic Adenosine Monophosphate (cAMP) Assays. A mixture of forskolin (5 μM final for FPR2 or 10 μM final for FPR1) and IBMX (200 μM final) were added to 384-well Proxiplates (Perkin-Elmer) pre-dotted with test compounds in DMSO (1% final) at final concentrations in the range of 0.020 nM to 100 μM. Chinese Hamster Ovary cells (CHO) overexpressing human FPR1 or human FPR2 receptors were cultured in F-12 (Ham's) medium supplemented with 10% qualified FBS, 250 μg/mL zeocin and 300 μg/mL hygromycin (Life Technologies). Reactions were initiated by adding 2,000 human FPR2 cells per well or 4,000 human FPR1 cells per well in Dulbecco's PBS (with calcium and magnesium) (Life Technologies) supplemented with 0.1% BSA (Perkin-Elmer). The reaction mixtures were incubated for 30 min at rt. The level of intracellular cAMP was determined using the HTRF HiRange cAMP assay reagent kit (Cisbio) according to manufacturer's instruction. Solutions of cryptate conjugated anti-cAMP and d2 flurorophore-labelled cAMP were made in a supplied lysis buffer separately. Upon completion of the reaction, the cells were lysed with equal volume of the d2-cAMP solution and anti-cAMP solution. After a 1-h rt incubation, time-resolved fluorescence intensity was measured using the Envision (Perkin-Elmer) at 400 nm excitation and dual emission at 590 nm and 665 nm. A calibration curve was constructed with an external cAMP standard at concentrations ranging from 1 μM to 0.1 μM by plotting the fluorescent intensity ratio from 665 nm emission to the intensity from the 590 nm emission against cAMP concentrations. The potency and activity of a compound to inhibit cAMP production was then determined by fitting to a 4-parametric logistic equation from a plot of cAMP level versus compound concentrations.
(§3) The examples disclosed below were tested in the FPR2 and FPR1 cAMP assay described above and found having FPR2 and/or FPR1 agonist activity. Table 1 below lists EC50 values in the FPR2 and FPR1 cAMP assays measured for the following examples.

human FPR1 receptors = biological target: T2, human FPR1 receptors (Homo sapiens, UniProt P21462); test: FPR1 cyclic adenosine monophosphate (cAMP) assay; assay type: cell-based; settings: CHO cells overexpressing human FPR1; forskolin 10 μM, IBMX 200 μM; 30 min at rt; inhibition of cAMP production (HTRF); read-out: hFPR1 cAMP EC50
T2 sequence (P21462 1-350): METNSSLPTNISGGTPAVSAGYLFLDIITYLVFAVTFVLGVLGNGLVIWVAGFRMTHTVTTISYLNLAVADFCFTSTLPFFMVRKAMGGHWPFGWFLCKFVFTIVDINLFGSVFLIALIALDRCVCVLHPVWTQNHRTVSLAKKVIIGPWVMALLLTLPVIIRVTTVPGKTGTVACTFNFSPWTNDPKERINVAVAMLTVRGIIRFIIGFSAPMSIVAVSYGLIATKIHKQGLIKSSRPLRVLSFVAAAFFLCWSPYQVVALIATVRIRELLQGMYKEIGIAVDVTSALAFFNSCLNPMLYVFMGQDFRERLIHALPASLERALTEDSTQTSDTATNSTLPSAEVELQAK
Source text: as §1, §2, §3

EC50 (human FPR2 receptors) | EC50 (human FPR1 receptors) | SMILES
1.5 nM | 1100 nM | CP(C)(=O)c1ccccc1-c1ccc(N2CCC[C@@H](NC(=O)Nc3cnc(Cl)cn3)C2=O)c(F)c1F [Example 8, 1-(5-Chloropyrazin-2-yl)-3-[(3R)-1-[2′-(dimethylphosphoryl)-2,3-difluoro-[1,1′-biphenyl]-4-yl]-2-oxopiperidin-3-yl]urea]
16.7 nM | 140 nM | CP(C)(=O)c1ccccc1-c1ccc(N2CCC[C@@H](NC(=O)Nc3ccc(Cl)cc3F)C2=O)cn1 [Example 19, 1-(4-Chloro-2-fluorophenyl)-3-[(3R)-1-{6-[2-(dimethylphosphoryl)phenyl]pyridin-3-yl}-2-oxopiperidin-3-yl]urea]
8.6 nM | > 10000 nM | CP(C)(=O)c1ccccc1-c1cc(F)c(N2CCC[C@@H](NC(=O)Nc3cnc(Cl)cn3)C2=O)c(F)c1 [Example 17, 1-(5-Chloropyrazin-2-yl)-3-[(3R)-1-[2′-(dimethylphosphoryl)-3,5-difluoro-[1,1′-biphenyl]-4-yl]-2-oxopiperidin-3-yl]urea]
2.2 nM | 1400 nM | CP(C)(=O)c1ccccc1-c1ccc(N2CCC[C@@H](NC(=O)Nc3ncc(Cl)cc3F)C2=O)c(F)c1F [Example 9, 1-(5-Chloro-3-fluoropyridin-2-yl)-3-[(3R)-1-[2′-(dimethylphosphoryl)-2,3-difluoro-[1,1′-biphenyl]-4-yl]-2-oxopiperidin-3-yl]urea]
0.86 nM | 430 nM | COc1ccc(NC(=O)N[C@@H]2CCCN(c3ccc(-c4ccccc4P(C)(C)=O)c(F)c3F)C2=O)c(F)c1 [Example 6, 3-[(3R)-1-[2′-(Dimethylphosphoryl)-2,3-difluoro-[1,1′-biphenyl]-4-yl]-2-oxopiperidin-3-yl]-1-(2-fluoro-4-methoxyphenyl)urea]
2.6 nM | 1700 nM | CP(C)(=O)c1ccccc1-c1cc(F)c(N2CCC[C@@H](NC(=O)Nc3ccc(C(F)(F)F)cc3F)C2=O)c(F)c1 [Example 11, 3-[(3R)-1-[2′-(Dimethylphosphoryl)-3,5-difluoro-[1,1′-biphenyl]-4-yl]-2-oxopiperidin-3-yl]-1-[2-fluoro-4-(trifluoromethyl)phenyl] urea]
5.6 nM | 2400 nM | COc1ccc(NC(=O)N[C@@H]2CCCN(c3c(F)cc(-c4ccccc4P(C)(C)=O)cc3F)C2=O)cc1 [Example 13, 3-[(3R)-1-[2′-(Dimethylphosphoryl)-3,5-difluoro-[1,1′-biphenyl]-4-yl]-2-oxopiperidin-3-yl]-1-(4-methoxyphenyl)urea]
43.2 nM | > 10000 nM | CP(C)(=O)c1ccccc1-c1cc(F)c(N2CCC[C@@H](NC(=O)Nc3ncc(Cl)cc3F)C2=O)c(F)c1 [Example 20, 1-(5-Chloro-3-fluoropyridin-2-yl)-3-[(3R)-1-[2′-(dimethylphosphoryl)-3,5-difluoro-[1,1′-biphenyl]-4-yl]-2-oxopiperidin-3-yl]urea]
0.12 nM | 110 nM | CP(C)(=O)c1ccccc1-c1ccc(N2CCC[C@@H](NC(=O)Nc3ccc(Cl)cc3F)C2=O)c(F)c1F [Example 1, (R)-1-(4-Chloro-2-fluorophenyl)-3-(1-(2′-(dimethylphosphoryl)-2,3-difluoro-[1,1′-biphenyl]-4-yl)-2-oxopiperidin-3-yl)urea]
11.6 nM | > 10000 nM | CP(C)(=O)c1ccccc1-c1ccc(N2CCC[C@@H](NC(=O)Nc3ncc(C(F)(F)F)cc3F)C2=O)c(F)c1F [Example 18]
8.4 nM | 1800 nM | CP(C)(=O)c1ccccc1-c1ccc(N2CCC[C@@H](NC(=O)Nc3ccc(OC(F)(F)F)cc3F)C2=O)c(F)c1F [Example 16, 3-[(3R)-1-[2′-(Dimethylphosphoryl)-2,3-difluoro-[1,1′-biphenyl]-4-yl]-2-oxopiperidin-3-yl]-1-[2-fluoro-4-(trifluoromethoxy)phenyl] urea]
0.17 nM | 420 nM | CCP(=O)(CC)c1ccccc1-c1cc(F)c(N2CCC[C@@H](NC(=O)Nc3ccc(Cl)cc3F)C2=O)c(F)c1 [Example 3, 1-(4-Chloro-2-fluorophenyl)-3-[(3R)-1-[2′-(diethylphosphoryl)-3,5-difluoro-[1,1′-biphenyl]-4-yl]-2-oxopiperidin-3-yl]urea]
22.1 nM | > 10000 nM | CP(C)(=O)c1ccccc1-c1cc(F)c(N2CCC[C@@H](NC(=O)Nc3ccc(OC(F)(F)F)cc3)C2=O)c(F)c1 [Example 21, 3-[(3R)-1-[2′-(Dimethylphosphoryl)-3,5-difluoro-[1,1′-biphenyl]-4-yl]-2-oxopiperidin-3-yl]-1-[4-(trifluoromethoxy)phenyl] urea]
8.3 nM | 7000 nM | CCP(=O)(CC)c1ccccc1-c1cc(F)c(N2CCC[C@@H](NC(=O)Nc3ncc(Cl)cc3F)C2=O)c(F)c1 [Example 15, 1-(5-Chloro-3-fluoropyridin-2-yl)-3-[(3R)-1-[2′-(diethylphosphoryl)-3,5-difluoro-[1,1′-biphenyl]-4-yl]-2-oxopiperidin-3-yl]urea]
0.79 nM | 2600 nM | CP(C)(=O)c1ccccc1-c1cc(F)c(N2CCC[C@@H](NC(=O)Nc3ccc(Cl)cc3F)C2=O)c(F)c1 [Example 7, 1-(4-Chloro-2-fluorophenyl)-3-[(3R)-1-[2′-(dimethylphosphoryl)-3,5-difluoro-[1,1′-biphenyl]-4-yl]-2-oxopiperidin-3-yl]urea]
1.4 nM | 370 nM | CP(C)(=O)c1ccccc1-c1ccc(N2CCC[C@@H](NC(=O)Nc3ccc(OC(F)(F)F)cc3)C2=O)c(F)c1F [Example 10, 3-[(3R)-1-[2′-(Dimethylphosphoryl)-2,3-difluoro-[1,1′-biphenyl]-4-yl]-2-oxopiperidin-3-yl]-1-[4-(trifluoromethoxy)phenyl] urea]
0.76 nM | 17 nM | CP(C)(=O)c1ccccc1-c1ccc(N2CCC[C@@H](NC(=O)Nc3ccc(Cl)cc3F)C2=O)c(C2CC2)c1 [Example 5, 1-(4-Chloro-2-fluorophenyl)-3-[(3R)-1-[3-cyclopropyl-2′-(dimethylphosphoryl)-[1,1′-biphenyl]-4-yl]-2-oxopiperidin-3-yl]urea]
6 nM | 1500 nM | CCP(=O)(CC)c1ccccc1-c1ccc(N2CCC[C@@H](NC(=O)Nc3ncc(Cl)cc3F)C2=O)c(F)c1F [Example 14, 1-(5-Chloro-3-fluoropyridin-2-yl)-3-[(3R)-1-[2′-(diethylphosphoryl)-2,3-difluoro-[1,1′-biphenyl]-4-yl]-2-oxopiperidin-3-yl]urea]
0.18 nM | 300 nM | CP(C)(=O)c1ccccc1-c1ccc(N2CCC[C@@H](NC(=O)Nc3ccc(C(F)(F)F)cc3F)C2=O)c(F)c1F [Example 2, 3-[(3R)-1-[2′-(Dimethylphosphoryl)-2,3-difluoro-[1,1′-biphenyl]-4-yl]-2-oxopiperidin-3-yl]-1-[2-fluoro-4-(trifluoromethyl)phenyl] urea]
